These are literature values, as cited in patent publication US20130040915A1, “PHARMACEUTICAL COMPOSITION” (CAPITAL, BUSINESS Y GESTION DE FINANZAS, S.L., priority 2010, published 2013).

The test system of series [1] is tumor-induced hypercalcaemia. Conditions: subcutaneous infusion.
The conditions of series [2]: high concentrations, of the order of 4.8 mg/ml.
The test system of series [3] is adipose tissue cell membranes. The following applies: concentrations of 1%.
Experiment in series [4]: not given
This is another data set of the same source.

Take `O=P(O)(O)C(Cl)(Cl)P(=O)(O)O` [clodronate]: the tolerability result in series [1] (1500 mg in 50 to 1000 ml, 2 to 24 hours) is on record as “well tolerated”. Further, the “control of tumor-induced hypercalcaemia (lowering the level of calcium)” value in series [1] (149 patients, 254 infusions) is recorded as “effective”. For `O=C([O-])CC(O)(CC(=O)[O-])C(=O)[O-].[Na+].[Na+].[Na+]` [sodium citrate], the “pain after a subcutaneous injection compared with a solution with histidine” value in series [2] is “more pain”. As to sodium deoxycholate, the pKa is listed as 6.58. In addition, the solubility entry (pH 7.4 of the skin) is recorded as “sparingly soluble”. In addition, the “effect on adipose tissue cell membranes” value in series [3] is on record as “non-specific rupture of adipose tissue cell membranes”.

Turning to `C[C@H](CCC(=O)NCCS(=O)(=O)O)[C@H]1CC[C@H]2[C@@H]3[C@H](O)C[C@@H]4C[C@H](O)CC[C@]4(C)[C@H]3C[C@H](O)[C@]12C` [sodium taurocholate], the pKa is listed as 1.4. For the molecule `O=P(O)(O)C(O)(Cn1ccnc1)P(=O)(O)O` [Zoledronic acid], in series [4], the “chemical stability in autoclave sterilization condition” value is recorded as “chemically very stable”.
